Columns and labels:
EGFR = target: T1, EGFR (Homo sapiens, UniProt P00533); assay: EGFR ELISA assay (in vitro kinase activity, EGFR captured from A431 cell lysate); format: biochemical; design: concentration or dose not given beside the values
T1 construct: Add 7 ug A431 cell lysate per well (EGFR source); endogenous in cells; host or cells: A431
How it was run: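 EGFR from A431 lysate was captured on plates coated with anti-EGFR antibody. Compounds were added 30 min before a 5 min phosphorylation with 3 µM ATP/5 mM MnCl2, which was stopped with 20 mM EDTA. Phosphotyrosine was detected with rabbit anti-phosphotyrosine, then a peroxidase-conjugated secondary and ABTS/H2O2, read at 410 nm.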

MET = MET biochemical kinase assay; design: species or system human; concentration or dose not given beside the values
How it was run: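 Plates coated with anti-rabbit Fc bind a rabbit anti-MET antibody that captures receptor from cell lysates; unbound protein is washed off before compound and ATP-containing kinase buffer go in.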

T1 sequence (P00533 25-1210): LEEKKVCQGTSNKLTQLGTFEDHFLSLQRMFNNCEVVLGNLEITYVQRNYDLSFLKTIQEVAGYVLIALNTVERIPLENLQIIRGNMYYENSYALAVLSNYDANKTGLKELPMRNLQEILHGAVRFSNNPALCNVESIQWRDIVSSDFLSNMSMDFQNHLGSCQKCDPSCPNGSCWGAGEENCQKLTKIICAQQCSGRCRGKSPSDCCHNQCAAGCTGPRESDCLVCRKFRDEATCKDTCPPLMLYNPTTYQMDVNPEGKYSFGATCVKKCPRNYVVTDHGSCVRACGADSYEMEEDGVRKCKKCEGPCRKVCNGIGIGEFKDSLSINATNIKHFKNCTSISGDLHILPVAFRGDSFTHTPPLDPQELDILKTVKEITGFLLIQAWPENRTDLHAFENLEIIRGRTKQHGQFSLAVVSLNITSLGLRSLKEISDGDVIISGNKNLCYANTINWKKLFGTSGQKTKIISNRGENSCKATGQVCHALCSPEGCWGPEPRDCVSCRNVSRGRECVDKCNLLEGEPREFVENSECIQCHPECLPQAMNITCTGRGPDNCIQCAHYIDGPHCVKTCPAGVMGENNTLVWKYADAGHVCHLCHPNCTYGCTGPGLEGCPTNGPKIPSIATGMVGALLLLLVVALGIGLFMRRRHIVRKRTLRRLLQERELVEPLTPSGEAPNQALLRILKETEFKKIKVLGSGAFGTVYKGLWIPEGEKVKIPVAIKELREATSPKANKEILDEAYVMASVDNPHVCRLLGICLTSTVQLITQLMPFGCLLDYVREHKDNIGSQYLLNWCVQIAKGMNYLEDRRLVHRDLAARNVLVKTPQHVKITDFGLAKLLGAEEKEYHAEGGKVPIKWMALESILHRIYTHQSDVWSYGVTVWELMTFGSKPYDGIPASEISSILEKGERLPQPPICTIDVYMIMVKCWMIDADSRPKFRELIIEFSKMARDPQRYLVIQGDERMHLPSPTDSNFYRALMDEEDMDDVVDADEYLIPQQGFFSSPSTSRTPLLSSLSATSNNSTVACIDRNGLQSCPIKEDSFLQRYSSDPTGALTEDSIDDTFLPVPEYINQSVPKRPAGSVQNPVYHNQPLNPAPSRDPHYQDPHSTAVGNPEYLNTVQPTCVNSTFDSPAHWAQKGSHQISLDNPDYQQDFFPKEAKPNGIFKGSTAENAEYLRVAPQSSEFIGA

| SMILES | Biochem EGFR %Inhibition (EGFR) [%] | Met Kinase % Inhibition (MET) [%] |
| --- | --- | --- |
| COc1cc(C=C2C(=O)Nc3c(Br)cc(Br)cc32)cc2c1OCO2 [10728/A11] | -0.6 | 58.8 |
| COC(=O)c1[nH]c(C)c(C=C2C(=O)Nc3c(Br)cc(Br)cc32)c1C(=O)OC [10718/A07] | -10.6 | 58.6 |
| CCc1cc(CC)c(C=C2C(=O)Nc3ccc(CCCl)cc32)[nH]1 [10727/G03] | 19.4 | 40.5 |
| O=C1Nc2ccc(CCCl)cc2C1=Cc1cc2c(cc1Cl)OCO2 [10727/G06] | -12.1 | 31.1 |
| CNS(=O)(=O)c1ccc2c(c1)C(=Cc1cccc(OC)c1OC)C(=O)N2 [10727/D11] | -23.7 | 17.3 |
| COc1cccc(OC)c1C=C1C(=O)Nc2c(Br)cc(Br)cc21 [10728/A03] | -25.8 | 29.2 |
| O=C1Nc2ccc(S(=O)(=O)N3CCOCC3)cc2C1=Cc1ccccc1Sc1ccc(Cl)cc1 [10727/F05] | -9.1 | 6.0 |
| CCN(CC)c1ccc(C=C2C(=O)Nc3ccc(S(=O)(=O)N4CCOCC4)cc32)cc1 [10727/F02] | -0.5 | 52.0 |
| Cc1c(Br)ccc2c1C(=Cc1c(F)cccc1C(F)(F)F)C(=O)N2 [10728/C09] | -6.8 | 31.6 |
| COc1cc(Br)c(O)c(C=C2C(=O)Nc3c(Br)cc(Br)cc32)c1 [10718/A03] | -6.1 | 92.7 |
| CNS(=O)(=O)c1ccc2c(c1)C(=Cc1cc(Cl)cc(Br)c1O)C(=O)N2 [10727/D04] | 39.6 | 76.0 |
| O=C1Nc2ccc(CCCl)cc2C1=Cc1cc(Cl)cc(Br)c1O [10727/G04] | 80.6 | 94.0 |
| O=C(O)COc1ccccc1C=C1C(=O)Nc2ccc(I)cc21 [10728/B10] | 16.8 | 79.3 |
| O=C1Nc2ccc(S(=O)(=O)N3CCOCC3)cc2C1=Cc1coc2ccccc2c1=O [10727/F07] | -8.9 | 17.9 |
| CNS(=O)(=O)c1ccc2c(c1)C(=Cc1cc(OC)cc(OC)c1)C(=O)N2 [10728/D04] | -1.1 | 23.1 |
| CCN(CC)c1ccc(C=C2C(=O)Nc3ccc(S(=O)(=O)Nc4ccc(C(F)(F)F)cc4)cc32)cc1 [10727/E02] | 22.4 | 28.0 |
| CNS(=O)(=O)c1ccc2c(c1)C(=Cc1ccc(C#N)cc1)C(=O)N2 [10727/D09] | 15.1 | 17.9 |
| O=C1Nc2ccc(I)cc2C1=Cc1cccc(C(F)(F)F)c1F [10728/B07] | 11.1 | 82.2 |
| O=C1Nc2ccc(S(=O)(=O)Nc3ccc(C(F)(F)F)cc3)cc2C1=Cc1cc(Cl)cc(Br)c1O [10727/E04] | 82.1 | 98.4 |
| CNS(=O)(=O)c1ccc2c(c1)C(=Cc1cc(O)ccc1O)C(=O)N2 [10727/D10] | 86.2 | 79.9 |
| CCN(CC)c1ccc(C=C2C(=O)Nc3ccc(CCCl)cc32)cc1 [10727/G02] | 37.5 | 81.5 |

From EP1247803A2, “Indolinone compounds suitable for modulation of protein kinases” (Sugen, Inc., priority 1996, dated 1998)
